Active and inactive are the calls of the source. Cut-off read from the data, not from the text of the source, for most assays here: actives have a measured Kd and inactives only a lower limit.
What was measured:
[1] = target: DNA topoisomerase 2-alpha (Homo sapiens, UniProt P11388)
[2] = target: Tyrosine-protein kinase Lyn (Homo sapiens, UniProt P07948)
[3] = target: cAMP-dependent protein kinase catalytic subunit alpha (Homo sapiens, UniProt P17612)
[4] = target: MAP/microtubule affinity-regulating kinase 3 (Homo sapiens, UniProt P27448)
Sequence of MAP/microtubule affinity-regulating kinase 3 (P27448 whole entry): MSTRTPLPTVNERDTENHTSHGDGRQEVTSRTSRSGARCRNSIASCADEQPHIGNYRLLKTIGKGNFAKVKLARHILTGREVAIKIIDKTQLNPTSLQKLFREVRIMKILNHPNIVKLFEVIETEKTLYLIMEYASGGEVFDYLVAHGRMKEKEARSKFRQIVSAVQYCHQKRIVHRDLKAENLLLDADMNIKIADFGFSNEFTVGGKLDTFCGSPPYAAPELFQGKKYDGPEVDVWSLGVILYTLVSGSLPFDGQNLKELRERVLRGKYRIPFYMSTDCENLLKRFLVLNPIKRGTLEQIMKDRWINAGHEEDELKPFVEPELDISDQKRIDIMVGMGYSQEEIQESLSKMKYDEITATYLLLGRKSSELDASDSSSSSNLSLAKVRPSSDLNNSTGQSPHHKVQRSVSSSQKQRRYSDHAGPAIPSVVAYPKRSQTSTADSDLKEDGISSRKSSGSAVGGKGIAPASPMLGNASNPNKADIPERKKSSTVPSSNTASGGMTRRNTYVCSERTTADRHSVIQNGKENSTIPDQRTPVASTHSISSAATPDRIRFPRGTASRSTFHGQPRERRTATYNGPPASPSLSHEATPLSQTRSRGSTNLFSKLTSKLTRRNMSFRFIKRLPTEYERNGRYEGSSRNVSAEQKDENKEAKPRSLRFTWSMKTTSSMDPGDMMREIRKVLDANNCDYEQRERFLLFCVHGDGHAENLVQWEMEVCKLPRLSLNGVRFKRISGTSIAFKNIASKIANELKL

[5] = target: Serine/threonine-protein kinase SIK3 (Homo sapiens, UniProt Q9Y2K2)
[6] = target: T1, Cyclin-G-associated kinase (Homo sapiens, UniProt O14976)
T1 sequence (O14976 whole entry): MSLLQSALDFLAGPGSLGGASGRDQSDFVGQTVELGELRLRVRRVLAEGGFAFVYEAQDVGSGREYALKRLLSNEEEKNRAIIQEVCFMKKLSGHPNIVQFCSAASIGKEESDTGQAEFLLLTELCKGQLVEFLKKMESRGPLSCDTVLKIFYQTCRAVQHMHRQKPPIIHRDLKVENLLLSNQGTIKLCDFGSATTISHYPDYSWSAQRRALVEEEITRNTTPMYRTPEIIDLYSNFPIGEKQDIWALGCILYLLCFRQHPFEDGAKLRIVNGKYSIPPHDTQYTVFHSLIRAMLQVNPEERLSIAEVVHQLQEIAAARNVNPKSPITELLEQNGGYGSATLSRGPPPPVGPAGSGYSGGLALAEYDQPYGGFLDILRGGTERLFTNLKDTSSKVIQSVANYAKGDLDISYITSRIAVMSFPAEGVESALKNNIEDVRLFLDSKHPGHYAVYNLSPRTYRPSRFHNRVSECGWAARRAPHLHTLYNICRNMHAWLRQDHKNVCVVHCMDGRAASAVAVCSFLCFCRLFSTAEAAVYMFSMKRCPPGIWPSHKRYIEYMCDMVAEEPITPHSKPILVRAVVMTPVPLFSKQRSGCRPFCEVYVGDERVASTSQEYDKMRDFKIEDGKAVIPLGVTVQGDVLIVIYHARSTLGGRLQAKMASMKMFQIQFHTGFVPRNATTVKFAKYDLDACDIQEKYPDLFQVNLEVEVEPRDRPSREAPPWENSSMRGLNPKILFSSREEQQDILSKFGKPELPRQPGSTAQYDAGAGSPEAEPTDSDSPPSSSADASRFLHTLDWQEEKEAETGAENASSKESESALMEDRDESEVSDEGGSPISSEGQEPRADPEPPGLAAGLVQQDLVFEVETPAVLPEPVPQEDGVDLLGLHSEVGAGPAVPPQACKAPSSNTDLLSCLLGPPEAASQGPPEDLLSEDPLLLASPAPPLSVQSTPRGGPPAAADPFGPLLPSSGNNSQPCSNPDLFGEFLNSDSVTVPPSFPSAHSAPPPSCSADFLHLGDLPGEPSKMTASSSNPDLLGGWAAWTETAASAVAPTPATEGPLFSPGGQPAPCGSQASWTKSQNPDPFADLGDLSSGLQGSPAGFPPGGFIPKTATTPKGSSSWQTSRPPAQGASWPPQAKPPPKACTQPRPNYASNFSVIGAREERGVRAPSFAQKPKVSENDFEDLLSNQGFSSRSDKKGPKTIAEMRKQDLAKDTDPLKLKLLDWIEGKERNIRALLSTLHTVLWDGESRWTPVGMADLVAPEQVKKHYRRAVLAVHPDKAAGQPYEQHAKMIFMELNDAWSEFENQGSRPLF

[7] = target: Rho-associated protein kinase 1 (Homo sapiens, UniProt Q13464)
Sequence of Rho-associated protein kinase 1 (Q13464 whole entry): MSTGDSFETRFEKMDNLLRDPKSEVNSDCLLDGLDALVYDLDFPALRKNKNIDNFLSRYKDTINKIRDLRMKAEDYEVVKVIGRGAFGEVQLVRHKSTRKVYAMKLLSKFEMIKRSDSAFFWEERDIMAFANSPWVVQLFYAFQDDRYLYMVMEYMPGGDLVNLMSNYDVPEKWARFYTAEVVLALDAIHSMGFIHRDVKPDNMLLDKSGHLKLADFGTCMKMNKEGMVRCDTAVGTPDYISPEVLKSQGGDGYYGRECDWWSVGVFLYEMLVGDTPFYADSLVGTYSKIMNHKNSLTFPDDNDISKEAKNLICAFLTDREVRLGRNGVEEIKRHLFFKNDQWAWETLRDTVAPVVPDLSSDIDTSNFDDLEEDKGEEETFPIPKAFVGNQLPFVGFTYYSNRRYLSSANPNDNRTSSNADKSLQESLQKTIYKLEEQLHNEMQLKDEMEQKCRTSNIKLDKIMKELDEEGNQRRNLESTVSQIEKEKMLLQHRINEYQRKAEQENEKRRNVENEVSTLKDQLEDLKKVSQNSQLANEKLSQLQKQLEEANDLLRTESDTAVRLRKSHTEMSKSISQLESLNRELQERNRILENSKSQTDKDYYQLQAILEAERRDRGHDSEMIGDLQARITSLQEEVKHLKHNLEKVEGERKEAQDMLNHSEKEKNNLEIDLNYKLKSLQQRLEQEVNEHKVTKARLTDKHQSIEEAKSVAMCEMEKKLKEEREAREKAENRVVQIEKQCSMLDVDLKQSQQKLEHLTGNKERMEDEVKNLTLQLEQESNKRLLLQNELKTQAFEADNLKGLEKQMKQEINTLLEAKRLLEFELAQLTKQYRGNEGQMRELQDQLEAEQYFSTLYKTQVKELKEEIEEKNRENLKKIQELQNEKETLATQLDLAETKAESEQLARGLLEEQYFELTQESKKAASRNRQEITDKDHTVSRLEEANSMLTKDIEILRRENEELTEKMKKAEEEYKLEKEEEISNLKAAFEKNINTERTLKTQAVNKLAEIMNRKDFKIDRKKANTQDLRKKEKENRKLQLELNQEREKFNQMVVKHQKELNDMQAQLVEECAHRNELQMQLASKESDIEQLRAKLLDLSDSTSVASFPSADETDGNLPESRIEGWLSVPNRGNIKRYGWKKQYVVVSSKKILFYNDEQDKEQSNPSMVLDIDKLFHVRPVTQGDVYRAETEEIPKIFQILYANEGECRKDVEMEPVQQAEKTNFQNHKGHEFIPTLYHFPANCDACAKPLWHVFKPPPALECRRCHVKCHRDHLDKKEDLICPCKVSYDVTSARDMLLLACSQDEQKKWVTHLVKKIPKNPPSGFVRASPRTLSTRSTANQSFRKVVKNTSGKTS

[8] = target: Cyclin-dependent kinase 13 (Homo sapiens, UniProt Q14004)
[9] = target: T2, Phosphatidylinositol 5-phosphate 4-kinase type-2 alpha (Homo sapiens, UniProt P48426)
T2 sequence (P48426 whole entry): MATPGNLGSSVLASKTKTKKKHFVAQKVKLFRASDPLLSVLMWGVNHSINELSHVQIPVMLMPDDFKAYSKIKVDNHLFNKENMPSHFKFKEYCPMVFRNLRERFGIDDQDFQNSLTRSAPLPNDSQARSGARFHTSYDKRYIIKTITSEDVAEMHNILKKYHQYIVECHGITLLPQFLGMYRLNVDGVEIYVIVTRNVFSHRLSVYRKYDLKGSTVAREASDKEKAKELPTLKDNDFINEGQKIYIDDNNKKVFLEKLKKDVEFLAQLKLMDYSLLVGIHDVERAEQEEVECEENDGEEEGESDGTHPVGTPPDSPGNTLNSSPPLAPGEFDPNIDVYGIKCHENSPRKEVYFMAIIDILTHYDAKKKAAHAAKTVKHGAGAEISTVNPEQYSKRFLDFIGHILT

[10] = target: T3, Delta(24)-sterol reductase (Homo sapiens, UniProt Q15392)
T3 sequence (Q15392 whole entry): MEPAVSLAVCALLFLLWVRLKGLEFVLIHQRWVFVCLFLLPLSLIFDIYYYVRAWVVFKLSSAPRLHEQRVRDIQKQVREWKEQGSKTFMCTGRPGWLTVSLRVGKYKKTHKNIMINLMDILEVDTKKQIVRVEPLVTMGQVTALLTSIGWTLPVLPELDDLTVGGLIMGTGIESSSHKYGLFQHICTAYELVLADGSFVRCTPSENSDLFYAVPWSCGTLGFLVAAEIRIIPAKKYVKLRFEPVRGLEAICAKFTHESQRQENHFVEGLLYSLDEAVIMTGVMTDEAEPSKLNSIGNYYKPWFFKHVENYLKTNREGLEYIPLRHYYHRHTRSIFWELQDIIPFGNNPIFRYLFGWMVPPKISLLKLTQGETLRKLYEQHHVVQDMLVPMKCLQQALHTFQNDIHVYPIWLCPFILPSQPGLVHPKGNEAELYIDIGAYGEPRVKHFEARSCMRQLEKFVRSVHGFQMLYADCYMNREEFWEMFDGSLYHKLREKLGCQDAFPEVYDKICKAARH

[11] = target: Cyclin-dependent kinase 12 (Homo sapiens, UniProt Q9NYV4)
Sequence of Cyclin-dependent kinase 12 (Q9NYV4 whole entry): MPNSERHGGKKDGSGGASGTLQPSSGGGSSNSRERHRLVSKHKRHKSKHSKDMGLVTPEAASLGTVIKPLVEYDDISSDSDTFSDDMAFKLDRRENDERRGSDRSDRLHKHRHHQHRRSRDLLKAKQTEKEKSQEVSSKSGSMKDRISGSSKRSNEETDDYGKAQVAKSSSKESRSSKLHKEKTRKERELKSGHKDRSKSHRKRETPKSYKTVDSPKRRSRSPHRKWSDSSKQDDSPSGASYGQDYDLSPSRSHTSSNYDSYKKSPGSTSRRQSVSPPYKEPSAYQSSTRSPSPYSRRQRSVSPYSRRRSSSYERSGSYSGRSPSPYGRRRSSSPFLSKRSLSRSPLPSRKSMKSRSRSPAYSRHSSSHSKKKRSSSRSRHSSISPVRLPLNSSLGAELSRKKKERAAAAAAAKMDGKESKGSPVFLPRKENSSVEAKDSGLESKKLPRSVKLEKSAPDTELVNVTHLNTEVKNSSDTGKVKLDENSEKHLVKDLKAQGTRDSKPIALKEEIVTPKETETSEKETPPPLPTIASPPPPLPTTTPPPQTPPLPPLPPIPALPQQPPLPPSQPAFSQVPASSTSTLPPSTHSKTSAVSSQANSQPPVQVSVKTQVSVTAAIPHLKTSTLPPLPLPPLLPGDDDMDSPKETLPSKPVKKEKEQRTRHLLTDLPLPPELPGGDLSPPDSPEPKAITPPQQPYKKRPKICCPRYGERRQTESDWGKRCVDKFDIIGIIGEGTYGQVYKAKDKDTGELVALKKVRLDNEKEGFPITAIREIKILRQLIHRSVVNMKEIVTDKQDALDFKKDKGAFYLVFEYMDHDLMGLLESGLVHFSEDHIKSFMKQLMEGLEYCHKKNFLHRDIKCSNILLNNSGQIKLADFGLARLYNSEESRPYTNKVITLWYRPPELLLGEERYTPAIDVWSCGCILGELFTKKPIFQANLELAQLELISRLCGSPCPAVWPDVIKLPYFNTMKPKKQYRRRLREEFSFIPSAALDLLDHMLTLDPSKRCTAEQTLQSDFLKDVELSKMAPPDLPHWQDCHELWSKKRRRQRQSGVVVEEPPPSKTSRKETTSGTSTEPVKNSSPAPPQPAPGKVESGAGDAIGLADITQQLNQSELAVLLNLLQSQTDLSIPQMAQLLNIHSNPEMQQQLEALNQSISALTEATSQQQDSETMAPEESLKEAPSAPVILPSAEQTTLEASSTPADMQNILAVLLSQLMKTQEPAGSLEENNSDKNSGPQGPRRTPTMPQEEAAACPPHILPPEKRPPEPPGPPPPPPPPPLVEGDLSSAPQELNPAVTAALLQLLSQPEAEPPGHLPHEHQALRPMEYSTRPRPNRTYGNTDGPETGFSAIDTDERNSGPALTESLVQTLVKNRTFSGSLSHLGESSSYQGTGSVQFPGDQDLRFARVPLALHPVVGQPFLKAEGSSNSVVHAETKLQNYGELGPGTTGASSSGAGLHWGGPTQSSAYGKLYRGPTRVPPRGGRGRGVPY
Note: in the data inactive means no Kd found up to 30 µM.

Sequence of Tyrosine-protein kinase Lyn (P07948 whole entry): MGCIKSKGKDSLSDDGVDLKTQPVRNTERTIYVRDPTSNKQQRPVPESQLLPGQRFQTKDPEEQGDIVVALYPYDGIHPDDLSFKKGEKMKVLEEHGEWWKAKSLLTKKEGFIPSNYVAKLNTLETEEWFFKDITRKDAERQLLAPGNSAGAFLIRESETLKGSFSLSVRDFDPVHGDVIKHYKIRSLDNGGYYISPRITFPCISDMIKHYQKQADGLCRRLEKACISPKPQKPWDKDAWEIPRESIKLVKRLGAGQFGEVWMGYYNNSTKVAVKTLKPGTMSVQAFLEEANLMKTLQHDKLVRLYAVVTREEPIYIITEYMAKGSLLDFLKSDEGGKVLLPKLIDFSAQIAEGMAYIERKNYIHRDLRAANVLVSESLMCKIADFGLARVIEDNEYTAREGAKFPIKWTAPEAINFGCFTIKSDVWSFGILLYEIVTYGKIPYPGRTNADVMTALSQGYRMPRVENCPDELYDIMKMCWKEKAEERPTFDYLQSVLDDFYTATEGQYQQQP

CN(C[C@@H]1COCCO1)S(=O)(=O)Nc1ccc2ccc3ncc(-c4cnn(C)c4)cc3c(=O)c2c1 [MK-2461] was tested, and the Kd [1] was > 30 µM (inactive), the Kd [2] was > 30 µM (inactive) and the Kd [3] was > 30 µM (inactive). For the same compound, the Kd [4] was > 30 µM (inactive), the Kd [5] was > 30 µM (inactive) and the Kd [6] was > 30 µM (inactive). For the same compound, the Kd [7] was > 30 µM (inactive), the Kd [8] was > 30 µM (inactive) and the Kd [9] was > 30 µM (inactive). The Kd [10] was > 30 µM (inactive) and the Kd [11] was > 30 µM (inactive).
In the case of COc1ncc(-c2ccc3nccc(-c4ccnnc4)c3c2)cc1NS(=O)(=O)c1ccc(F)cc1F [OMIPALISIB], the Kd [1] is reported as > 30 µM (inactive), the Kd [2] is reported as > 30 µM (inactive) and the Kd [3] is reported as > 30 µM (inactive). The Kd [4] was > 30 µM (inactive), the Kd [5] was > 30 µM (inactive) and the Kd [6] was > 30 µM (inactive). The Kd [7] was > 30 µM (inactive), the Kd [8] was > 30 µM (inactive) and the Kd [9] was > 30 µM (inactive). The Kd [10] was > 30 µM (inactive) and the Kd [11] was > 30 µM (inactive).
For CCOc1cc2ncc(C#N)c(Nc3ccc(F)c(Cl)c3)c2cc1NC(=O)/C=C/CN(C)C [PELITINIB], the Kd [1] was > 30 µM (inactive), the Kd [2] was > 30 µM (inactive) and the Kd [3] was > 30 µM (inactive). The Kd [4] was > 30 µM (inactive), the Kd [5] was > 30 µM (inactive) and the Kd [6] was 0.117 µM (active). The Kd [7] was > 30 µM (inactive), the Kd [8] was > 30 µM (inactive) and the Kd [9] was > 30 µM (inactive). For the same compound, the Kd [10] was > 30 µM (inactive) and the Kd [11] was > 30 µM (inactive).
Cc1nc(Nc2n[nH]c3c2CN(C(=O)N[C@H](CN(C)C)c2ccccc2)C3(C)C)c2sccc2n1 [PF-03758309] was tested, and the Kd [1] was > 30 µM (inactive), the Kd [2] was > 30 µM (inactive) and the Kd [3] was 0.935 µM (active). For the same compound, the Kd [4] was 0.105 µM (active), the Kd [5] was > 30 µM (inactive) and the Kd [6] was 1.95 µM (active). The Kd [7] was > 30 µM (inactive), the Kd [8] was > 30 µM (inactive) and the Kd [9] was > 30 µM (inactive). For the same compound, the Kd [10] was > 30 µM (inactive) and the Kd [11] was > 30 µM (inactive).
For CO[C@H]1C[C@@H]2CC[C@@H](C)[C@@](O)(O2)C(=O)C(=O)N2CCCC[C@H]2C(=O)O[C@H]([C@H](C)C[C@@H]2CC[C@@H](OP(C)(C)=O)[C@H](OC)C2)CC(=O)[C@H](C)/C=C(\C)[C@@H](O)[C@@H](OC)C(=O)[C@H](C)C[C@H](C)/C=C/C=C/C=C/1C [RIDAFOROLIMUS], the Kd [1] was > 30 µM (inactive), the Kd [2] was > 30 µM (inactive) and the Kd [3] was > 30 µM (inactive). For the same compound, the Kd [4] was > 30 µM (inactive), the Kd [5] was > 30 µM (inactive) and the Kd [6] was > 30 µM (inactive). For the same compound, the Kd [7] was > 30 µM (inactive), the Kd [8] was > 30 µM (inactive) and the Kd [9] was > 30 µM (inactive). The Kd [10] was > 30 µM (inactive) and the Kd [11] was > 30 µM (inactive).
For CO[C@H]1C[C@@H]2CC[C@@H](C)[C@@](O)(O2)C(=O)C(=O)N2CCCC[C@H]2C(=O)O[C@H]([C@H](C)C[C@@H]2CC[C@@H](O)[C@H](OC)C2)CC(=O)[C@H](C)/C=C(\C)[C@@H](O)[C@@H](OC)C(=O)[C@H](C)C[C@H](C)/C=C/C=C/C=C/1C [SIROLIMUS], the Kd [1] was > 30 µM (inactive), the Kd [2] was > 30 µM (inactive) and the Kd [3] was > 30 µM (inactive). For the same compound, the Kd [4] was > 30 µM (inactive), the Kd [5] was > 30 µM (inactive) and the Kd [6] was > 30 µM (inactive). The Kd [7] was > 30 µM (inactive), the Kd [8] was > 30 µM (inactive) and the Kd [9] was > 30 µM (inactive). The Kd [10] was > 30 µM (inactive) and the Kd [11] was > 30 µM (inactive).
With CO[C@H]1C[C@@H]2CC[C@@H](C)[C@@](O)(O2)C(=O)C(=O)N2CCCC[C@H]2C(=O)O[C@H]([C@H](C)C[C@@H]2CC[C@@H](OC(=O)C(C)(CO)CO)[C@H](OC)C2)CC(=O)[C@H](C)/C=C(\C)[C@@H](O)[C@@H](OC)C(=O)[C@H](C)C[C@H](C)/C=C/C=C/C=C/1C [TEMSIROLIMUS] the Kd [1] was > 30 µM (inactive), the Kd [2] was > 30 µM (inactive) and the Kd [3] was > 30 µM (inactive). For the same compound, the Kd [4] was > 30 µM (inactive), the Kd [5] was > 30 µM (inactive) and the Kd [6] was > 30 µM (inactive). The Kd [7] was > 30 µM (inactive), the Kd [8] was > 30 µM (inactive) and the Kd [9] was > 30 µM (inactive). The Kd [10] was > 30 µM (inactive) and the Kd [11] was > 30 µM (inactive).
For COc1cc2c(Nc3ccc(Cl)c(Cl)c3F)ncnc2cc1OC[C@@H]1C[C@@H]2CN(C)C[C@@H]2C1 [TESEVATINIB], the Kd [1] was > 30 µM (inactive), the Kd [2] was 1.13 µM (active) and the Kd [3] was > 30 µM (inactive). The Kd [4] was > 30 µM (inactive), the Kd [5] was > 30 µM (inactive) and the Kd [6] was 0.615 µM (active). For the same compound, the Kd [7] was > 30 µM (inactive), the Kd [8] was > 30 µM (inactive) and the Kd [9] was > 30 µM (inactive). For the same compound, the Kd [10] was > 30 µM (inactive) and the Kd [11] was > 30 µM (inactive).
With C[C@@H](NC(=O)c1ncnc(N)c1Cl)c1ncc(C(=O)Nc2cc(C(F)(F)F)c(Cl)cn2)s1 [TOVORAFENIB] the Kd [1] was > 30 µM (inactive), the Kd [2] was > 30 µM (inactive) and the Kd [3] was > 30 µM (inactive). The Kd [4] was > 30 µM (inactive), the Kd [5] was > 30 µM (inactive) and the Kd [6] was > 30 µM (inactive). For the same compound, the Kd [7] was > 30 µM (inactive), the Kd [8] was > 30 µM (inactive) and the Kd [9] was > 30 µM (inactive). The Kd [10] was > 30 µM (inactive) and the Kd [11] was > 30 µM (inactive).
Cc1cc(Nc2ncnc3ccc(NC4=NC(C)(C)CO4)cc23)ccc1Oc1ccn2ncnc2c1 [TUCATINIB] was tested, and the Kd [1] was > 30 µM (inactive), the Kd [2] was > 30 µM (inactive) and the Kd [3] was > 30 µM (inactive). For the same compound, the Kd [4] was > 30 µM (inactive), the Kd [5] was > 30 µM (inactive) and the Kd [6] was > 30 µM (inactive). For the same compound, the Kd [7] was > 30 µM (inactive), the Kd [8] was > 30 µM (inactive) and the Kd [9] was > 30 µM (inactive). For the same compound, the Kd [10] was > 30 µM (inactive) and the Kd [11] was > 30 µM (inactive).
With CN1C/C=C/CCOc2cccc(c2)-c2ccnc(n2)Nc2cccc(c2)C1 [ZOTIRACICLIB] the Kd [1] was > 30 µM (inactive), the Kd [2] was > 30 µM (inactive) and the Kd [3] was > 30 µM (inactive). The Kd [4] was > 30 µM (inactive), the Kd [5] was 1.3 µM and the Kd [6] was > 30 µM (inactive). The Kd [7] was 99.2 µM, the Kd [8] was > 30 µM (inactive) and the Kd [9] was > 30 µM (inactive). The Kd [10] was > 30 µM (inactive) and the Kd [11] was 5.63 µM (active).

— ChEMBL document CHEMBL3991601, “The target landscape of clinical kinase drugs” (Science, 2017)
